{"source": "ChEMBL document CHEMBL4622979", "about": "“Non-rigid Diarylmethyl Analogs of Baloxavir as Cap-Dependent Endonuclease Inhibitors of Influenza Viruses” (J Med Chem, 2020)", "key": {"[1]": {"experiment": "Half life in CD1 mouse heart assessed as (12aR)-12-(Diphenylmethyl)-7-hydroxy-3,4,12,12a-tetrahydro-1H-[1,4]oxazino[3,4-c]pyrido[2,1-f ][1,2,4]triazine-6,8-dione level at 15 mg/kg, po administered as single dose measured up to 24 hrs by LC-MS/MS analysis", "format": "ADME, organism-based", "conditions": "in vivo"}, "[2]": {"experiment": "Ratio of AUClast in CD1 mouse small intestine to plasma assessed as (12aR)-12-(Diphenylmethyl)-7-hydroxy-3,4,12,12a-tetrahydro-1H-[1,4]oxazino[3,4-c]pyrido[2,1-f ][1,2,4]triazine-6,8-dione level at 15 mg/kg, po administered as single dose measured up to 24 hrs by LC-MS/MS analysis", "format": "ADME, organism-based", "conditions": "other tissue"}, "[3]": {"experiment": "AUCinfinity in CD1 mouse heart assessed as (12aR)-12-(Diphenylmethyl)-7-hydroxy-3,4,12,12a-tetrahydro-1H-[1,4]oxazino[3,4-c]pyrido[2,1-f ][1,2,4]triazine-6,8-dione level at 15 mg/kg, po administered as single dose measured up to 24 hrs by LC-MS/MS analysis", "format": "ADME, organism-based", "parameters": "dose 15 mg/kg, time infinity, route oral", "conditions": "in vivo"}, "[4]": {"experiment": "Cmax in CD1 mouse small intestine assessed as (12aR)-12-(Diphenylmethyl)-7-hydroxy-3,4,12,12a-tetrahydro-1H-[1,4]oxazino[3,4-c]pyrido[2,1-f ][1,2,4]triazine-6,8-dione level at 15 mg/kg, po administered as single dose measured up to 24 hrs by LC-MS/MS analysis", "format": "ADME, organism-based", "parameters": "dose 15 mg/kg, route oral", "conditions": "in vivo"}, "[5]": {"experiment": "MRTlast in CD1 mouse lung assessed as (12aR)-12-(Diphenylmethyl)-7-hydroxy-3,4,12,12a-tetrahydro-1H-[1,4]oxazino[3,4-c]pyrido[2,1-f ][1,2,4]triazine-6,8-dione level at 15 mg/kg, po administered as single dose measured up to 24 hrs by LC-MS/MS analysis", "format": "ADME, organism-based", "conditions": "in vivo"}, "[6]": {"experiment": "Tmax in CD1 mouse trachea assessed as (12aR)-12-(Diphenylmethyl)-7-hydroxy-3,4,12,12a-tetrahydro-1H-[1,4]oxazino[3,4-c]pyrido[2,1-f ][1,2,4]triazine-6,8-dione level at 15 mg/kg, po administered as single dose measured up to 24 hrs by LC-MS/MS analysis", "format": "ADME, organism-based", "conditions": "in vivo"}, "[7]": {"experiment": "Ratio of AUClast in CD1 mouse liver to plasma assessed as (12aR)-12-(Diphenylmethyl)-7-hydroxy-3,4,12,12a-tetrahydro-1H-[1,4]oxazino[3,4-c]pyrido[2,1-f ][1,2,4]triazine-6,8-dione level at 15 mg/kg, po administered as single dose measured up to 24 hrs by LC-MS/MS analysis", "format": "ADME, organism-based", "conditions": "other tissue"}, "[8]": {"experiment": "Ratio of free drug level in CD1 mouse blood assessed as (12aR)-12-(Diphenylmethyl)-7-hydroxy-3,4,12,12a-tetrahydro-1H-[1,4]oxazino[3,4-c]pyrido[2,1-f ][1,2,4]triazine-6,8-dione level at 20 mg/kg, po to EC50 for antiviral activity against Influenza A/California/04/2009 (H1N1)pdm09 infected in MDCK cells", "format": "ADME, organism-based", "conditions": "in vivo"}, "[9]": {"experiment": "MRTlast in CD1 mouse heart assessed as (12aR)-12-(Diphenylmethyl)-7-hydroxy-3,4,12,12a-tetrahydro-1H-[1,4]oxazino[3,4-c]pyrido[2,1-f ][1,2,4]triazine-6,8-dione level at 15 mg/kg, po administered as single dose measured up to 24 hrs by LC-MS/MS analysis", "format": "ADME, organism-based", "conditions": "in vivo"}, "[10]": {"experiment": "Elimination rate constant in CD1 mouse muscle assessed as (12aR)-12-(Diphenylmethyl)-7-hydroxy-3,4,12,12a-tetrahydro-1H-[1,4]oxazino[3,4-c]pyrido[2,1-f ][1,2,4]triazine-6,8-dione level at 15 mg/kg, po administered as single dose measured up to 24 hrs by LC-MS/MS analysis", "format": "ADME, organism-based, Muscle tissue", "conditions": "in vivo"}, "[11]": {"experiment": "Ratio of AUClast in CD1 mouse lung to plasma assessed as (12aR)-12-(Diphenylmethyl)-7-hydroxy-3,4,12,12a-tetrahydro-1H-[1,4]oxazino[3,4-c]pyrido[2,1-f ][1,2,4]triazine-6,8-dione level at 15 mg/kg, po administered as single dose by LC-MS/MS analysis", "format": "ADME, organism-based", "conditions": "other tissue"}, "[12]": {"experiment": "Stability in human plasma assessed as parent compound remaining at 1 uM measured after 4 hrs by LC-MS/MS analysis", "format": "ADME, cell-free", "conditions": "read-out: Stability"}, "[13]": {"experiment": "Cmax in CD1 mouse plasma assessed as (12aR)-12-(Diphenylmethyl)-7-hydroxy-3,4,12,12a-tetrahydro-1H-[1,4]oxazino[3,4-c]pyrido[2,1-f ][1,2,4]triazine-6,8-dione level at 15 mg/kg, po administered as single dose by LC-MS/MS analysis", "format": "ADME, organism-based", "parameters": "dose 15 mg/kg, route oral", "conditions": "in vivo"}, "[14]": {"experiment": "AUCinfinity in CD1 mouse brain assessed as baloxavir acid level at 15 mg/kg, po administered as single dose measured up to 24 hrs by LC-MS/MS analysis", "format": "ADME, organism-based", "parameters": "dose 15 mg/kg, time infinity, route oral", "conditions": "in vivo"}, "[15]": {"experiment": "MRTlast in CD1 mouse liver assessed as baloxavir acid level at 15 mg/kg, po administered as single dose measured up to 24 hrs by LC-MS/MS analysis", "format": "ADME, organism-based", "conditions": "in vivo"}, "[16]": {"experiment": "Half life in CD1 mouse liver assessed as baloxavir acid level at 15 mg/kg, po administered as single dose measured up to 24 hrs by LC-MS/MS analysis", "format": "ADME, organism-based", "conditions": "in vivo"}, "[17]": {"experiment": "AUCinfinity in CD1 mouse plasma assessed as baloxavir acid level at 15 mg/kg, po administered as single dose measured up to 24 hrs by LC-MS/MS analysis", "format": "ADME, organism-based", "parameters": "dose 15 mg/kg, route oral, time infinity", "conditions": "in vivo"}, "[18]": {"experiment": "MRTlast in CD1 mouse spleen assessed as baloxavir acid level at 15 mg/kg, po administered as single dose measured up to 24 hrs by LC-MS/MS analysis", "format": "ADME, organism-based", "conditions": "in vivo"}, "[19]": {"experiment": "Tmax in CD1 mouse heart assessed as baloxavir acid level at 15 mg/kg, po administered as single dose measured up to 24 hrs by LC-MS/MS analysis", "format": "ADME, organism-based", "conditions": "in vivo"}, "[20]": {"experiment": "AUClast in CD1 mouse liver assessed as baloxavir acid level at 15 mg/kg, po administered as single dose measured up to 24 hrs by LC-MS/MS analysis", "format": "ADME, organism-based", "conditions": "in vivo"}, "[21]": {"experiment": "AUClast in CD1 mouse plasma assessed as baloxavir acid level at 15 mg/kg, po administered as single dose by LC-MS/MS analysis", "format": "ADME, organism-based", "parameters": "dose 15 mg/kg, route oral, time 0 - last", "conditions": "in vivo"}, "[22]": {"experiment": "AUClast in CD1 mouse blood assessed as baloxavir acid level at 15 mg/kg, po administered as single dose measured up to 24 hrs by LC-MS/MS analysis", "format": "ADME, organism-based", "conditions": "in vivo"}, "[23]": {"experiment": "Cmax in CD1 mouse muscle assessed as baloxavir acid level at 15 mg/kg, po administered as single dose measured up to 24 hrs by LC-MS/MS analysis", "format": "ADME, organism-based, Muscle tissue", "parameters": "dose 15 mg/kg, route oral", "conditions": "in vivo"}, "[24]": {"experiment": "Ratio of AUClast in CD1 mouse spleen to plasma assessed as baloxavir acid level at 15 mg/kg, po administered as single dose measured up to 24 hrs by LC-MS/MS analysis", "format": "ADME, organism-based", "conditions": "other tissue"}, "[25]": {"experiment": "MRTlast in CD1 mouse brain assessed as baloxavir acid level at 15 mg/kg, po administered as single dose measured up to 24 hrs by LC-MS/MS analysis", "format": "ADME, organism-based", "conditions": "in vivo"}, "[26]": {"experiment": "MRTlast in CD1 mouse blood assessed as baloxavir acid level at 15 mg/kg, po administered as single dose measured up to 24 hrs by LC-MS/MS analysis", "format": "ADME, organism-based", "conditions": "in vivo"}}}
{"compound": "COC(=O)OCOc1c2n(ccc1=O)N(C(c1ccccc1)c1ccccc1)[C@@H]1COCCN1C2=O", "values": [{"measurement": "t1/2", "setting": "[1]", "value": 1.69, "unit": "h"}, {"measurement": "Ratio AUC", "setting": "[2]", "value": 13.3}, {"measurement": "AUC", "setting": "[3]", "value": 11444, "unit": "ng·h/g"}, {"measurement": "Cmax", "setting": "[4]", "value": 24707, "unit": "ng/g"}, {"measurement": "MRTlast", "setting": "[5]", "value": 1.7, "unit": "h"}, {"measurement": "Tmax", "setting": "[6]", "value": 0.5, "unit": "h"}, {"measurement": "Ratio AUC", "setting": "[7]", "value": 10.6}, {"measurement": "Ratio", "setting": "[8]", "value": 18}, {"measurement": "MRTlast", "setting": "[9]", "value": 1.88, "unit": "h"}, {"measurement": "Kel", "setting": "[10]", "value": 0.4, "unit": "h⁻¹"}, {"measurement": "Ratio AUC", "setting": "[11]", "value": 3}, {"measurement": "remaining at 4 h, 1 µM", "setting": "[12]", "value": 8.1, "unit": "%"}, {"measurement": "Cmax", "setting": "[13]", "value": 875, "unit": "ng/mL"}]}
{"compound": "COC(=O)OCOc1c2n(ccc1=O)N([C@@H]1c3ccccc3SCc3c1ccc(F)c3F)[C@@H]1COCCN1C2=O", "note": "[BALOXAVIR MARBOXIL]", "values": [{"measurement": "AUC", "setting": "[14]", "value": 411, "unit": "ng·h/g"}, {"measurement": "MRTlast", "setting": "[15]", "value": 2.92, "unit": "h"}, {"measurement": "t1/2", "setting": "[16]", "value": 2.57, "unit": "h"}, {"measurement": "AUC", "setting": "[17]", "value": 558, "unit": "ng·h/mL"}, {"measurement": "MRTlast", "setting": "[18]", "value": 5.54, "unit": "h"}, {"measurement": "Tmax", "setting": "[19]", "value": 2, "unit": "h"}, {"measurement": "AUClast", "setting": "[20]", "value": 85226, "unit": "ng·h/g"}, {"measurement": "AUClast", "setting": "[21]", "value": 715, "unit": "ng·h/mL"}, {"measurement": "AUClast", "setting": "[22]", "value": 1381, "unit": "ng·h/g"}, {"measurement": "Cmax", "setting": "[23]", "value": 916, "unit": "ng/g"}, {"measurement": "Ratio AUC", "setting": "[24]", "value": 7.99}, {"measurement": "MRTlast", "setting": "[25]", "value": 8.42, "unit": "h"}, {"measurement": "MRTlast", "setting": "[26]", "value": 3.93, "unit": "h"}]}
